Source: US11406589B2, “Cutibacterium granulosum strain, and composition comprising such strain or culture thereof for preventing or treating acne” (GENOME AND COMPANY, priority 2018, dated 2022)

Assays:
[1] = system: filaggrin; test: Skin barrier function: filaggrin RNA expression in HaCaT cell line; assay type: cell-based, human; details: 24 hours, retinoic acid 1 μM (positive control)
[2] = system: claudin-1; test: Skin barrier function: claudin-1 RNA expression in HaCaT cell line; assay type: cell-based, human; details: 24 hours, retinoic acid 1 μM (positive control)
[3] = system: HAS3 (hyaluronic acid synthase); test: Skin moisturizing function: HAS3 RNA expression in HaCaT cell line; assay type: cell-based, human; details: 24 hours, retinoic acid 1 μM (positive control)
Procedure: (§1) To investigate a function for a skin moisturizing effect by GENSCO2 fermented filtrates, it was confirmed that the fermented filtrates of GENSCO2 were treated to the HaCaT cell line by % to the cell culture solution, and then were reacted for 24 hours to confirm the expression of HAS3 (hyaluronic acid synthase) and aquaporin which were markers of the skin moisturizing function on RNA.

[4] = system: aquaporin; test: Skin moisturizing function: aquaporin RNA expression in HaCaT cell line; assay type: cell-based, human; details: 24 hours, retinoic acid 1 μM (positive control)
Procedure: as §1

[5] = system: Cutibacterium acnes ATCC 6919; test: Growth inhibition, overlay clear zone test; assay type: cell-based; details: overlay on RCM agar, about 72 hours; triclosan positive control 200 mg/ml
From the text: (§2) The effect of growth inhibition of S. aureus and C. acnes was confirmed by observing formation of a clear zone. […] The experiment was progressed, expecting that S. aureus and C. acnes around Cutibacterium granulosum GENSC02 could not grow and they became transparent, if Cutibacterium granulosum GENSC02 had the effect of inhibiting the growth of bacteria. The Cutibacterium granulosum GENSC02 culture broth was collected with a platinum loop and was anaerobically cultured in a thin RCM agar plate at 37° C. for 72 hours by drawing a line about 2.5 cm. After confirming that Cutibacterium granulosum GENSC02 sufficiently grew, S. aureus and C. acnes strains adjusted to 10^4 cfu/ml were inoculated in 10 ml RCM agar at about 45° C. which was not yet solidified, and they were well suspended before the medium was hardened, and they were evenly solidified by pouring them on the agar plate in which Cutibacterium granulosum GENSC02 grew. In the solidified agar plate, S. aureus and C. acnes were further cultured anaerobically at 37° C. for about 40 hours and about 72 hours, respectively, to observe the size of the clear zone appearing around Cutibacterium granulosum GENSC02. As the negative control group, phosphate-buffered saline (PBS) was used, and as the positive control group, triclosan was used, and S. aureus and C. acnes were treated at an amount of 10 mg/ml and 200 mg/ml, respectively.

[6] = system: Staphylococcus aureus KCTC 1621; test: Growth inhibition, overlay clear zone test; assay type: cell-based; details: overlay on RCM agar, about 40 hours; triclosan positive control 10 mg/ml
From the text: as §2

SMILES	expression of filaggrin [1] [times]	expression of claudin-1 [2] [times]	expression of HAS3 (hyaluronic acid synthase) [3]	expression of aquaporin [4]	growth inhibition of C. acnes (clear zone) [5]	growth inhibition of S. aureus (clear zone) [6]
CC1=C(/C=C/C(C)=C/C=C/C(C)=C/C(=O)O)C(C)(C)CCC1 [retinoic acid]	1.5	1.5	2˜4 times	2˜4 times	–	–
Oc1cc(Cl)ccc1Oc1ccc(Cl)cc1Cl [triclosan]	–	–	–	–	much smaller area than GENSC02 treatment	much smaller area than GENSC02 treatment
